From patent publication US20100167311A1, “Oxidoreductases and Processes Utilising Such Enzymes” (priority 2006, published 2010)

Legend:
type-1 site of NiR M150G [1] = molecular target: T1, type-1 site of NiR M150G (Alcaligenes faecalis, UniProt P38501, M186G); test: biochemical; type: binding, A. faecalis S-6
T1 construct: His tag (C, cleaved yes); made in house
Source text: Spectroscopy and assays—The spectrophotometer was a Perkin Elmer Instruments Lambda 800.

NiR M150G = molecular target: T2, NiR M150G (Alcaligenes faecalis, UniProt P38501, M186G); test: Activity assay monitoring oxidation of pseudoazurin, NiR M150G with external ligands; type: biochemical, A. faecalis S-6; conditions: for effect of external ligand on catalytic activity of NiR M150G: in words; for kcat^sat of NiR M150G saturated with external ligand: pseudoazurin 275-325 μM, nitrite 5 mM, 50 mM Mops pH 7.0
T2 construct: His tag (C, cleaved yes); made in house
T2 sequence (P38501 other isoform, or with tags, fused parts or gaps M186G): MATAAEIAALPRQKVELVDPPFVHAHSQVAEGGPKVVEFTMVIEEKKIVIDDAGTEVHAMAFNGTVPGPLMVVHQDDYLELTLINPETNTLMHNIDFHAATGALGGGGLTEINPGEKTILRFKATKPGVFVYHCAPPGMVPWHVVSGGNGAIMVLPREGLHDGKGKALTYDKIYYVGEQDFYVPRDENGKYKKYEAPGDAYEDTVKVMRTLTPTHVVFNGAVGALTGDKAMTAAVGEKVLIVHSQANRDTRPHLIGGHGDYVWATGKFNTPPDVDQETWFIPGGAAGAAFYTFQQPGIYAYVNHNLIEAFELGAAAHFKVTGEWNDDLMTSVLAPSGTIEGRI
Method: (§1) Activity assays were carried out by monitoring the oxidation of pseudoazurin as described (3). The concentrations of the electron donor pseudoazurin (275-325 μM) and the electron acceptor nitrite (5 mM) were saturating. The concentration of NiR was typically 1 nM. The buffer for activity assays was always 50 mM Mops pH 7.0. Whenever using volatile compounds, the cuvette was sealed with a PTFE stopper. All reported activities were calculated from initial rates. Apparent dissociation constants (KD^app) were obtained from a least-squares fit of activity (v) versus ligand concentration to v=v^NoLigand+Δv×[L]/(KD^app+[L]). The meaning of KD^app will be explained in the Discussion section.

pseudoazurin [2] = molecular target: T3, pseudoazurin (UniProt P04377)
T3 sequence: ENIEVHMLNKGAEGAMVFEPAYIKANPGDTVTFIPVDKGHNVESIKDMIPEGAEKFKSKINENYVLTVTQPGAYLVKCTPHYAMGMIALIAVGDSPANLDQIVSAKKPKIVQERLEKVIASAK

wt NiR = molecular target: T4, wt NiR (Alcaligenes faecalis, UniProt P38501); test: Activity assay monitoring oxidation of pseudoazurin, wt NiR with external ligands; type: biochemical, A. faecalis S-6; conditions: for effect of external ligand on catalytic activity of wt NiR: in words
T4 construct: His tag (C, cleaved yes); made in house
Method: as §1

type-1 site of NiR M150G [3] = molecular target: T1, type-1 site of NiR M150G; type: binding, A. faecalis S-6; conditions: versus NHE, NiR M150G with external ligand bound, interpreted as upper limit
Method: Potentiometric titrations—Potentiometric titrations were carried out as described by Dutton (47) in a cuvette held at 298 K in 100 mM potassium phosphate pH 7.0. The NiR concentration was typically 40 mM. Diaminodurol (2,3,5,6-tetramethyl-1,4-phenylenediamine) was used as a redox mediator at 100-200 μM. Potassium ferricyanide and sodium dithionite were used to change the potential of the solution. Visible absorption and the potential of the solution were monitored until both were stable. Spectra were recorded in the range of 510-800 nm since diaminodurol gives negligible absorbance in this region.
The recorded spectra were integrated using a routine written in Igor Pro (WaveMetrics Inc.). For base line correction this routine approximated the scattering contributions (due to aggregated protein) either by a linear approximation or by a method described elsewhere (48). […] The integrated absorbance versus potential was fitted to the Nernst equation with the number of electrons held at one. […]
in which EM^NL is the reduction potential without ligand, [L] denotes the free ligand concentration, KD^ox and KD^red are the ligand dissociation constants from the oxidized and reduced type-1 site respectively, R is the gas constant, F is the Faraday constant and T is the absolute temperature. […] The midpoint potential of the type-1 site with the external ligand bound (EM^L) was calculated from equation 2. […]

[4] = in words; cited from earlier work
pseudoazurin [5] = test: Catalytic activity of NiR variants with the physiological electron donor pseudoazurin and nitrite; type: biochemical, A. faecalis S-6; conditions: no external ligand; pseudoazurin 275-325 μM, nitrite 5 mM, 50 mM Mops pH 7.0
Method: as §1

pseudoazurin, P04377 = molecular target: T5, pseudoazurin, P04377
T5 chain: T3 sequence

T1 sequence (P38501 other isoform, or with tags, fused parts or gaps M186G): as the sequence (P38501 other isoform, or with tags, fused parts or gaps M186G) above

CSC [dimethylsulfide]
Kd (type-1 site of NiR M150G [1]): 21 ± 4 mM | Kd (NiR M150G): 34 ± 7 mM | effect of external ligand on catalytic activity of NiR M150G (NiR M150G): restored the activity up to the level of wt NiR | kcat^sat of NiR M150G saturated with external ligand (NiR M150G): 373 ± 22 s⁻¹

nitrite reductase M150T from Alcaligenes faecalis S-6
kcat^sat (oxidation of pseudoazurin, no external ligand) (pseudoazurin [2]): 126 s⁻¹

CC#N [acetonitrile]
increase of catalytic activity (wt NiR; wt NiR): 50% | Kd (type-1 site of NiR M150G [1]): 71.5 ± 7.3 mM | kcat^sat of NiR M150G saturated with external ligand (NiR M150G): >390^A s^−1

nitrite reductase M150H from Alcaligenes faecalis S-6
kcat^sat (oxidation of pseudoazurin, no external ligand) (pseudoazurin [2]): 0.099 s⁻¹

CC(N)=O [acetamide]
fitted reduction potential with ligand bound (EM^L) (type-1 site of NiR M150G [3]): < 225 mV | Kd (type-1 site of NiR M150G [1]): 71 ± 3 mM | effect of external ligand on catalytic activity of NiR M150G (NiR M150G): restored the activity up to the level of wt NiR | kcat^sat of NiR M150G saturated with external ligand (NiR M150G): 374 ± 28 s⁻¹

CCSC [ethylmethylsulfide]
effect of external ligand on catalytic activity of wt NiR (wt NiR): constant activity | Kd (type-1 site of NiR M150G [1]): 14 ± 6 mM | Kd (NiR M150G): > 73 mM | effect of external ligand on catalytic activity of NiR M150G (NiR M150G): activity doubled | kcat^sat of NiR M150G saturated with external ligand (NiR M150G): >292 s⁻¹

nitrite reductase M150G from Alcaligenes faecalis S-6
kcat^sat (oxidation of pseudoazurin, no external ligand) (pseudoazurin [2]): 133 s⁻¹ | kcat^sat (oxidation of pseudoazurin, saturated with acetamide) (pseudoazurin [2]): 374 s⁻¹ | kcat^sat (oxidation of pseudoazurin, saturated with dimethylsulfide) (pseudoazurin [2]): 373 s⁻¹ | kcat^sat (oxidation of pseudoazurin, with acetonitrile) (pseudoazurin [2]): >390^A | kcat^sat (oxidation of pseudoazurin, with ethylmethylsulfide) (pseudoazurin [2]): > 292 s⁻¹ | kcat^sat (oxidation of pseudoazurin, with formamide) (pseudoazurin [2]): > 255 s⁻¹

c1c[nH]cn1 [imidazole]
effect of external ligand on catalytic activity of wt NiR (wt NiR): decreased in activity | Kd (type-1 site of NiR M150G [1]): 52 ± 3 mM | rate of slow spectral change (absorption at 430 nm versus time, single exponential) (type-1 site of NiR M150G [1]; NiR M150G with imidazole 260 mM, 25° C.): 0.823 ± 0.003 h⁻¹ | effect of external ligand on catalytic activity of NiR M150G (NiR M150G): decreased in activity

c1ccncc1 [pyridine]
fitted reduction potential with ligand bound (EM^L) (type-1 site of NiR M150G [3]): < 245 mV

Cc1cscn1 [4-methylthiazole]
Kd (type-1 site of NiR M150G [1]): 22 ± 3 mM

NC=O [formamide]
effect of external ligand on catalytic activity of wt NiR (wt NiR): constant activity | effect of external ligand on catalytic activity of NiR M150G (NiR M150G): activity doubled | kcat^sat of NiR M150G saturated with external ligand (NiR M150G): >255 s⁻¹

B1: Achromobacter cycloclastes NiR M150Q: literature Met150Gln mutant of Achromobacter cycloclastes nitrite reductase (protein, UniProt P25006 39-378, looked up, variant M150Q)
Copper-containing nitrite …: AAGAAPVDISTLPRVKVDLVKPPFVHAHDQVAKTGPRVVEFTMTIEEKKLVIDREGTEIHAMTFNGSVPGPLMVVHENDYVELRLINPDTNTLLHNIDFHAATGALGGGALTQVNPGEETTLRFKATKPGVFVYHCAPEGMVPWHVTSGQNGAIMVLPRDGLKDEKGQPLTYDKIYYVGEQDFYVPKDEAGNYKKYETPGEAYEDAVKAMRTLTPTHIVFNGAVGALTGDHALTAAVGERVLVVHSQANRDTRPHLIGGHGDYVWATGKFRNPPDLDQETWLIPGGTAGAAFYTFRQPGVYAYVNHNLIEAFELGAAGHFKVTGEWNDDLMTSVVKPASM
electron transfer rate (literature) [4]: decreased below the detection limit

B2: wild-type Cu-containing nitrite reductase from Alcaligenes faecalis S-6 (protein)
chain: QGAVRKATAAEIAALPRQKVELVDPPFVHAHSQVAEGGPKVVEFTMVIEEKKIVIDDAGTEVHAMAFNGTVPGPLMVVHQDDYLELTLINPETNTLMHNIDFHAATGALGGGGLTEINPGEKTILRFKATKPGVFVYHCAPPGMVPWHVVSGMNGAIMVLPREGLHDGKGKALTYDKIYYVGEQDFYVPRDENGKYKKYEAPGDAYEDTVKVMRTLTPTHVVFNGAVGALTGDKAMTAAVGEKVLIVHSQANRDTRPHLIGGHGDYVWATGKFNTPPDVDQETWFIPGGAAGAAFYTFQQPGIYAYVNHNLIEAFELGAAAHFKVTGEWNDDLMTSVLAPSGT
kcat^sat (pseudoazurin [5]): 416 ± 10 s⁻¹ | kcat^sat (oxidation of pseudoazurin, no external ligand) (pseudoazurin, P04377): 416 s⁻¹
